Columns and labels:
β-oxidation = details: literature ref. 17, cited from earlier work
[1] = microPET imaging and myocardial time-activity curves (tracer kinetics) in a fed rat; assay type: in vivo
Method: Animal Preparation. All animal procedures are conducted in compliance with the guidelines for the care and use of research animals established by the Animal Studies Committee of Washington University. Animal preparation is performed as described previously.^24-26 Rats are housed in metabolism cages and anesthetized by inhalation of […] isoflurane administered via an induction chamber. Anesthesia can be maintained throughout the imaging session by delivering 1%-1.5% isoflurane via a custom-designed nose cone. Venous access is via the right jugular vein. Body temperature can be maintained using a circulating water blanket and a heat lamp. Heart and respiration rates can be monitored throughout the process.
PET Acquisition. The animals can be secured in a custom-designed acrylic restraining device and placed inside the field of view of the small-animal imaging PET scanner. Imaging acquisition starts Ss after a bolus injection of tracer via the right jugular catheter. The imaging protocol consists of dynamic acquisition of microPET images of ^11C-palmitate (5-7mCI) followed by ^18F-FAA or by ^18F-VLDL (5-7mCi) alone. Dynamic mage acquisition during ^11C-palmitate and either ^18F-FAA or ^18F-FAA-VLDL can be 30 and 60 min, respectively. The total time of the imaging session can be ˜3 hrs. Three whole-blood arterial samples are collected throughout the study to measure whole blood glucose (5 μL), free fatty acid (20 μL), and insulin (5 μL) levels to confirm the metabolic state of the animals,
Image Processing/Analysis. Dynamic images can be reconstructed using filtered backprojection with a 2.5 zoom on the heart and 40 frames per imaging session. The input function is reconstructed by applying the hybrid image-blood-sampling algorithm as described previously.^25 A myocardial region of interest is placed to generate a myocardial time-activity curve (TAC). The ^18F-FAA and ^18F-FAA-VLDL blood and myocardial TACs can be compared with the ^11C-palmitate TACs for both defiing characteristics (e.g., height and shape) as well as similar kinetics based exponential curve-fitting algorithms. […]

[2] = previous studies; rapid phase = oxidation, slow phase = storage; cited from earlier work

Compound: CCCC([18F])CCCCCCCSCCCCC(=O)O (racemic) [FTHA, 14-(R,S)-^18F-fluoro-6-thiaheptadecanoic acid]
- uptake and retention versus inhibition of β-oxidation by hypoxia (β-oxidation): insensitive to the inhibition of β-oxidation by hypoxia

Compound: O=C(O)CCSCCCCCCCCCCCC[18F] [FTP, ^18F-fluoro-thia-palmitate]
- deposition versus β-oxidation (β-oxidation; normal oxygenation and hypoxic conditions): proportional to β-oxidation under normal oxygenation and hypoxic conditions

Compound: CCCCCCCCCCCCCCC[11C](=O)O [^11C-palmitate]
- myocardial tracer uptake and washout pattern ([1]; blood and myocardial TACs, fed rat): significant tracer uptake with rapid bi-phasic washout
- tracer clearance late after injection ([1]; blood and myocardium, up to 60 mins post-tracer injection): tracer increased in both, blood and myocardium, 25 mins post tracer injection
- washout kinetics from heart [2]: biphasic washout kinetics from heart

Compound: O=C(O)CCCCCCCCCCCCCCc1ccc(OCC[18F])cc1 [^18F-FAA]
- tracer clearance late after injection ([1]; rat, in vivo): still prevalent at 60 mins post-tracer injection

Compound: O=C(O)CCCCCCCCCCCCCCc1ccc(I)cc1 [^123I-lPPA, 15-(p-iodophenyl)-pentadecanoic acid]
- washout kinetics from heart [2]: biphasic washout kinetics from heart

Reference: US20120100073A1, “PET RADIOTRACERS FOR IMAGING FATTY ACID METABOLISM AND STORAGE” (WASHINGTON UNIVERSITY, priority 2009, published 2012)
